Data taken from article PMC3277640 (Proteins, 2011).
Like-named read-outs stand apart in the source and are kept apart here. Ends that are not written are not given here.

Assays:
[1] = biological target: SPase I Δ2-75 (Escherichia coli, UniProt P00803); conditions: data not shown
[2] = biological target: T1, KAP25 alkaline phosphatase signal peptide signal peptide (Escherichia coli, UniProt P00634 = phosphatase); assay: fluorescence
T1 chain: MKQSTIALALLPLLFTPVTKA

With “KKKMKQSTIALALLPLLFTPVTKARTPEKKK-NH2 [KAP25]” the “cleavage of KAP25 signal peptide” value ([1]; 24 hours of incubation with the enzyme) was “about 7%”, the “cleavage of KAP25 signal peptide” value ([1]; 36 hours of incubation with the enzyme) was roughly 19% and the “cleavage of KAP25 signal peptide” value ([1]; 48 hours of incubation with the enzyme) was roughly 27%.

B1: Signal peptidase I cytoplasmic domain (protein)
chain: IVRSFIYEPFQIPSGSMMPTLLIGDFILVEKFAYGIKDPIYQKTLIETGHPKRGDIVVFKYPEDPKLDYIKRAVGLPGDKVTYDPVSKELTIQPGCSSGQACENALPVTYSNVEPSDFVQTFSRRNGGEATSGFFEVPKNETKENGIRLSERKETLGDVTHRILTVPIAQDQVGMYYQQPGQQLATWIVPPGQYFMMGDNRDNSADSRYWGFVPEANLVGRATAIWMSFDKQEGEWPTGLRLSRIGGIH
With B1 the Kd [2] was 250 nM.
